Test results reported in patent US20060069163A1, “Method for treating Alzheimer's disease” (Pfizer Inc, priority 2000, published 2006).
Entries after “also recorded” stand apart in the source; their conditions may differ.

System: β-amyloid peptide (Aβ) synthesized by β APP-CHO cells
Test: Aβ production in βAPP-CHO cells, sandwich ELISA
Type: cell-based, Chinese hamster
Details: CHO cells overexpressing human βAPP, test compounds added at various dose concentrations to the medium, FIG. 5 and FIG. 6
Text: This experiment was designed to determine the ability of lipid regulating agents to alter the production of β-amyloid peptide (Aβ) in cultured cells, and their consequent activity in preventing and treating Alzheimer's Disease.
Chinese hamster ovary (CHO) cells were stably transfected with a construct to enable the overexpression of the human β-amyloid precursor protein (βAPP) gene to cause increased production of Aβ. The measurement of Aβ synthesized by these β APP-CHO cells was done using a standard sandwich ELISA assay, employing well-characterized antibodies to the N-terminus (6E10) and middle (4G8) of Aβ. This assay is routinely used to measure Aβ in tissues, body fluids, and cell culture media. Cultures of β APP-CHO cells were grown to near confluency, and then the test compounds were added at various dose concentrations to the cell medium.

With `CC(C)c1cc(C(C)C)c(CC(=O)NS(=O)(=O)Oc2c(C(C)C)cccc2C(C)C)c(C(C)C)c1` [Avasimibe] the “reduction in Aβ” value was “substantial dose-dependent reduction”.
With `Cc1ccc(C)c(OCCCC(C)(C)C(=O)O)c1` [CI-719, gemfibrozil] the “reduction in Aβ” value was “only moderate changes”.
For `CC(C)(CCCCOCCCCC(C)(C)C(=O)O)C(=O)O` [CI-1027], the “reduction in Aβ” value was “only moderate changes”.
In the case of `c1coc(CSC2=NCCS2)c1` [PD 69405], the “reduction in Aβ” value is reported as “only moderate changes”.
In the case of `CC[C@H](C)C(=O)O[C@H]1C[C@@H](C)C=C2C=C[C@H](C)[C@H](CC[C@@H]3C[C@@H](O)CC(=O)O3)[C@H]21` [lovastatin], the “reduction in Aβ” value is reported as “dose-dependent inhibition; also recorded: dramatic dose-dependent reduction”.
With `CC[C@H](C)C(=O)O[C@H]1CCC=C2C=C[C@H](C)[C@H](CC[C@@H]3C[C@@H](O)CC(=O)O3)[C@H]21` [mevastatin] the “reduction in Aβ” value was “dose-dependent inhibition” and the “reduction in Aβ” value (listed as Mevastatin) was “dramatic dose-dependent reduction”.
